Measured values reported in patent US20210290732A1, “GLP-1R and GCGR Agonists, Formulations, and Methods of Use” (Spitfire Pharma LLC, priority 2020, published 2021).
Where two headings read alike, the source gives them in different places.

Key:
[1] = molecular target: T1, human GLP-1R (Homo sapiens, UniProt P43220); experiment: cAMP receptor activation assay, human GLP-1R cloned into CHO cells (DiscoverX LeadHunter / cAMP Hunter); format: cell-based; conditions: for Selectivity Ratio GLP-1R vs GCGR: SR = GCGR EC50/GLP-1 EC50, 0.1% BSA
T1 construct: host or cells: CHO-K1
T1 sequence (P43220 24-463): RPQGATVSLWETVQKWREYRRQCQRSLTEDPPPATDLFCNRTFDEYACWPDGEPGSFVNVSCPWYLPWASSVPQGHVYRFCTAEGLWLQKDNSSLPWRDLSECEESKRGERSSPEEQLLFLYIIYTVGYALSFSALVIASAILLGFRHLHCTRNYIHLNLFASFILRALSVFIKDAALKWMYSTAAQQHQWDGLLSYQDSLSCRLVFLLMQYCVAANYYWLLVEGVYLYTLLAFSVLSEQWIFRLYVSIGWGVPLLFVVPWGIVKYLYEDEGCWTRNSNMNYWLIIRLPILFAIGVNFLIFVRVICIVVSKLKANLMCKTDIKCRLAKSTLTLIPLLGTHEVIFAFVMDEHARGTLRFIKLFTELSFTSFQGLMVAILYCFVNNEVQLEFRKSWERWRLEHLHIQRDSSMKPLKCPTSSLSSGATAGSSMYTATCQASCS
Description: (§1) Cellular assays were carried out using standard cellular assays (DiscoveRx, LeadHunter assays) using readout of cAMP stimulation or arrestin activation. Compounds were weighed precisely in an amount of approximately 1 mg and shipped to DiscoverX (Fremont, Calif.) for dilution and assay. […] Assays were carried out in the presence of 0.1% ovalbumin. […] Use of 0.1% ovalbumin can avoid this problem.
(§2) Assays were carried out in the presence of 0.1% ovalbumin. […] Use of 0.1% ovalbumin can avoid this problem.
(§3) Receptor activation assays were performed at DiscoverX laboratories (Fremont, Calif.) using human GLP-1R and GCGR cloned into Chinese Hamster Ovary (CHO) cells (LeadHunter Discovery Services; assay product 86-0007D cAMP Hunter™ using huGLP1R and huGCGR; whole cell cAMP accumulation assays; cell lines used were cAMP Hunter™ CHO-K1 GCGR Gs Cell Line, catalog 95-0042C2 and cAMP Hunter™ CHO-K1 GLP1 Gs Cell Line, catalog 95-0062C2; readout of accumulated cAMP was made using readout HitHunter cAMP XS+ assay). Cell lines are maintained at DiscoverX and were incubated with test agents for 30 m at 37° C. for accumulation of cAMP. […] Results described herein are from single assays performed on cells in duplicate and data were replotted in Prism 5 to provide pEC50 (SE) data.
(§4) In vitro data are presented as pEC50 (SE) determined in Prism 5 by nonlinear regression analysis of the raw fluorescence data normalized by corresponding response to internal standards (see Supporting Information for data plots).

[2] = molecular target: GCGR (Homo sapiens, UniProt P47871); experiment: cAMP receptor activation assay, human GCGR cloned into CHO cells (DiscoverX LeadHunter / cAMP Hunter); format: cell-based; parameters: host or cells: CHO-K1
Sequence of GCGR (P47871 26-477): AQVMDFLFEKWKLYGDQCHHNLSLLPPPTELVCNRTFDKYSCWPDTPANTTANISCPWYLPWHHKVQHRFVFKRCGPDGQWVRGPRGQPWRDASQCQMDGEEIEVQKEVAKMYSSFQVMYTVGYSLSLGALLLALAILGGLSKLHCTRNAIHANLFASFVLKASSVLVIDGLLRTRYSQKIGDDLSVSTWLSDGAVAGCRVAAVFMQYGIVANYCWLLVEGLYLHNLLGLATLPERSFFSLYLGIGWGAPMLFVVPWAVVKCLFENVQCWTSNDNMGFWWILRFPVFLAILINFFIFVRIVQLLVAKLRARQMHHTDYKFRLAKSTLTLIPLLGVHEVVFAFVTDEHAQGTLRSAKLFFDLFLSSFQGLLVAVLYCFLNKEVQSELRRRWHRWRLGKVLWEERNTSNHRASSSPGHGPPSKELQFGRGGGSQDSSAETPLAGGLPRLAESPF
Description: as §1, §2, §3, §4

[3] = cAMP, CHO cells, 0.1% BSA containing buffers, read-out: pEC50 (SE) hu GLP-1 (converted)
[4] = cAMP, CHO cells, 0.1% BSA containing buffers, read-out: pEC50 (SE) huGCGR (converted)
[5] = cAMP, CHO cells, 0.1% OVA containing buffers, read-out: EC50 hGCGR

CC[C@H](C)[C@H](NC(=O)[C@H](Cc1ccccc1)NC(=O)[C@H](CCC(=O)O)NC(=O)[C@@H]1CCCCNC(=O)CC[C@H](NC(=O)[C@H](CC(=O)O)NC(=O)[C@H](CC(C)C)NC(=O)[C@H](Cc2ccc(O)cc2)NC(=O)[C@H](CCCCN)NC(=O)[C@H](CO)NC(=O)[C@H](Cc2ccc(O)cc2)NC(=O)[C@H](CC(=O)O)NC(=O)[C@H](CO)NC(=O)[C@@H](NC(=O)[C@H](Cc2ccccc2)NC(=O)[C@@H](NC(=O)CNC(=O)[C@H](CCC(N)=O)NC(=O)C(C)(C)NC(=O)[C@@H](N)Cc2c[nH]cn2)[C@@H](C)O)[C@@H](C)O)C(=O)N[C@@H](CCC(N)=O)C(=O)N[C@@H](C)C(=O)N[C@@H](C)C(=O)N1)C(=O)N[C@@H](CCCCNC(=O)[C@H]1O[C@@H](OCCCCCCCCCCCCCCCCCC(=O)O)[C@H](O)[C@@H](O)[C@@H]1O)C(=O)N[C@@H](Cc1c[nH]c2ccccc12)C(=O)N[C@@H](CC(C)C)C(=O)N[C@@H](CC(C)C)C(=O)N[C@@H](CCC(N)=O)C(=O)N[C@H](C(N)=O)[C@@H](C)O [EU-A1872] showed an EC50 ([1]; read-out: EC50 cAMP GLP-1 R (pM) 0.1% BSA, Table 5, 0.1% BSA) of 1270 pM, an EC50 ([1]; read-out: EC50 cAMP GLP-1 R (pM) 0.1% BSA, Table 6, 0.1% BSA) of 1270 pM and an EC50 ([2]; read-out: EC50 cAMP glucagon R (pM) 0.1% Ovalb, Table 5, 0.1% ovalbumin) of 86 pM.
CCCCCCCCO[C@@H]1O[C@H](C(=O)NCCCC[C@H](NC(=O)[C@@H](NC(=O)[C@H](Cc2ccccc2)NC(=O)[C@H](CCC(=O)O)NC(=O)[C@@H]2CCCCNC(=O)CC[C@H](NC(=O)[C@H](CC(=O)O)NC(=O)[C@H](CC(C)C)NC(=O)[C@H](Cc3ccc(O)cc3)NC(=O)[C@H](CCCCN)NC(=O)[C@H](CO)NC(=O)[C@H](Cc3ccc(O)cc3)NC(=O)[C@H](CC(=O)O)NC(=O)[C@H](CO)NC(=O)[C@@H](NC(=O)[C@H](Cc3ccccc3)NC(=O)[C@@H](NC(=O)CNC(=O)[C@H](CCC(N)=O)NC(=O)C(C)(C)NC(=O)[C@@H](N)Cc3c[nH]cn3)[C@@H](C)O)[C@@H](C)O)C(=O)N[C@@H](CCC(N)=O)C(=O)N[C@@H](C)C(=O)N[C@@H](C)C(=O)N2)[C@@H](C)CC)C(=O)N[C@@H](Cc2c[nH]c3ccccc23)C(=O)N[C@@H](CC(C)C)C(=O)N[C@@H](CC(C)C)C(=O)N[C@@H](CCC(N)=O)C(=O)N[C@H](C(N)=O)[C@@H](C)O)[C@@H](O)[C@H](O)[C@H]1O [analogue 1] was tested, and the “Selectivity Ratio GLP-1R vs GCGR” value [1] was 3, the EC50 ([1]; cAMP, CHO cells, 0.1% BSA containing buffers, read-out: EC50 hGLP-1R) was 8 pM and the EC50 [1, 3] was 8.51 pM. It also gave an EC50 [2, 4] of 20 pM.
For CCCCCCCCCCCCCCCCCCO[C@@H]1O[C@H](C(=O)NCCCC[C@H](NC(=O)[C@@H](NC(=O)[C@H](Cc2ccccc2)NC(=O)[C@H](CCC(=O)O)NC(=O)[C@@H]2CCCCNC(=O)CC[C@H](NC(=O)[C@H](CC(=O)O)NC(=O)[C@H](CC(C)C)NC(=O)[C@H](Cc3ccc(O)cc3)NC(=O)[C@H](CCCCN)NC(=O)[C@H](CO)NC(=O)[C@H](Cc3ccc(O)cc3)NC(=O)[C@H](CC(=O)O)NC(=O)[C@H](CO)NC(=O)[C@@H](NC(=O)[C@H](Cc3ccccc3)NC(=O)[C@@H](NC(=O)CNC(=O)[C@H](CCC(N)=O)NC(=O)C(C)(C)NC(=O)[C@@H](N)Cc3c[nH]cn3)[C@@H](C)O)[C@@H](C)O)C(=O)N[C@@H](CCC(N)=O)C(=O)N[C@@H](C)C(=O)N[C@@H](C)C(=O)N2)[C@@H](C)CC)C(=O)N[C@@H](Cc2c[nH]c3ccccc23)C(=O)N[C@@H](CC(C)C)C(=O)N[C@@H](CC(C)C)C(=O)N[C@@H](CCC(N)=O)C(=O)N[C@H](C(N)=O)[C@@H](C)O)[C@@H](O)[C@H](O)[C@H]1O [analogue 6], the “Selectivity Ratio GLP-1R vs GCGR” value [1] was 17, the “Selectivity Ratio (SR=GCGR EC50/GLP-1 EC50)” value [2] was 17 and the EC50 ([2]; text on Table 17, read-out: EC50 values for GCGR) was 884 pM.
For CCCCCCCCCCCCO[C@@H]1O[C@H](C(=O)O)[C@@H](O[C@H]2O[C@H](C(=O)NCCCC[C@H](NC(=O)[C@@H](NC(=O)[C@H](Cc3ccccc3)NC(=O)[C@H](CCC(=O)O)NC(=O)[C@@H]3CCCCNC(=O)CC[C@H](NC(=O)[C@H](CC(=O)O)NC(=O)[C@H](CC(C)C)NC(=O)[C@H](Cc4ccc(O)cc4)NC(=O)[C@H](CCCCN)NC(=O)[C@H](CO)NC(=O)[C@H](Cc4ccc(O)cc4)NC(=O)[C@H](CC(=O)O)NC(=O)[C@H](CO)NC(=O)[C@@H](NC(=O)[C@H](Cc4ccccc4)NC(=O)[C@@H](NC(=O)CNC(=O)[C@H](CCC(N)=O)NC(=O)C(C)(C)NC(=O)[C@@H](N)Cc4c[nH]cn4)[C@@H](C)O)[C@@H](C)O)C(=O)N[C@@H](CCC(N)=O)C(=O)N[C@@H](C)C(=O)N[C@@H](C)C(=O)N3)[C@@H](C)CC)C(=O)N[C@@H](Cc3c[nH]c4ccccc34)C(=O)N[C@@H](CC(C)C)C(=O)N[C@@H](CC(C)C)C(=O)N[C@@H](CCC(N)=O)C(=O)N[C@H](C(N)=O)[C@@H](C)O)[C@@H](O)[C@H](O)[C@H]2O)[C@H](O)[C@H]1O [analogue 7], the EC50 [1] was 50.1 pM and the EC50 [2, 4] was 14.8 pM.
CCCCCCCCCCCCCCO[C@@H]1O[C@H](C(=O)NCCCC[C@H](N)C(=O)NCCCC[C@H](NC(=O)[C@@H](NC(=O)[C@H](Cc2ccccc2)NC(=O)[C@H](CCC(=O)O)NC(=O)[C@@H]2CCCCNC(=O)CC[C@H](NC(=O)[C@H](CC(=O)O)NC(=O)[C@H](CC(C)C)NC(=O)[C@H](Cc3ccc(O)cc3)NC(=O)[C@H](CCCCN)NC(=O)[C@H](CO)NC(=O)[C@H](Cc3ccc(O)cc3)NC(=O)[C@H](CC(=O)O)NC(=O)[C@H](CO)NC(=O)[C@@H](NC(=O)[C@H](Cc3ccccc3)NC(=O)[C@@H](NC(=O)CNC(=O)[C@H](CCC(N)=O)NC(=O)C(C)(C)NC(=O)[C@@H](N)Cc3c[nH]cn3)[C@@H](C)O)[C@@H](C)O)C(=O)N[C@@H](CCC(N)=O)C(=O)N[C@@H](C)C(=O)N[C@@H](C)C(=O)N2)[C@@H](C)CC)C(=O)N[C@@H](Cc2c[nH]c3ccccc23)C(=O)N[C@@H](CC(C)C)C(=O)N[C@@H](CC(C)C)C(=O)N[C@@H](CCC(N)=O)C(=O)N[C@H](C(N)=O)[C@@H](C)O)[C@@H](O)[C@H](O)[C@H]1O [analogue 13] was tested, and the “Selectivity Ratio GLP-1R vs GCGR” value [1] was 5, the EC50 [1, 3] was 37.2 pM and the “Selectivity Ratio (SR=GCGR EC50/GLP-1 EC50)” value [2] was 5.
With CCCCCCCCCCCCCCO[C@@H]1O[C@H](C(=O)N[C@@H](CCC(=O)NCCCC[C@H](NC(=O)[C@@H](NC(=O)[C@H](Cc2ccccc2)NC(=O)[C@H](CCC(=O)O)NC(=O)[C@@H]2CCCCNC(=O)CC[C@H](NC(=O)[C@H](CC(=O)O)NC(=O)[C@H](CC(C)C)NC(=O)[C@H](Cc3ccc(O)cc3)NC(=O)[C@H](CCCCN)NC(=O)[C@H](CO)NC(=O)[C@H](Cc3ccc(O)cc3)NC(=O)[C@H](CC(=O)O)NC(=O)[C@H](CO)NC(=O)[C@@H](NC(=O)[C@H](Cc3ccccc3)NC(=O)[C@@H](NC(=O)CNC(=O)[C@H](CCC(N)=O)NC(=O)C(C)(C)NC(=O)[C@@H](N)Cc3c[nH]cn3)[C@@H](C)O)[C@@H](C)O)C(=O)N[C@@H](CCC(N)=O)C(=O)N[C@@H](C)C(=O)N[C@@H](C)C(=O)N2)[C@@H](C)CC)C(=O)N[C@@H](Cc2c[nH]c3ccccc23)C(=O)N[C@@H](CC(C)C)C(=O)N[C@@H](CC(C)C)C(=O)N[C@@H](CCC(N)=O)C(=O)N[C@H](C(N)=O)[C@@H](C)O)C(=O)O)[C@@H](O)[C@H](O)[C@H]1O [analogue 14] the “Selectivity Ratio GLP-1R vs GCGR” value [1] was 2, the EC50 [1, 3] was 42.7 pM and the “GCGR activation potency (vs 4)” value [2] was “significantly weakened GCGR activation potency”.
With CC[C@H](C)[C@H](NC(=O)[C@H](Cc1ccccc1)NC(=O)[C@H](CCC(=O)O)NC(=O)[C@@H]1CCCCNC(=O)CC[C@H](NC(=O)[C@H](CC(=O)O)NC(=O)[C@H](CC(C)C)NC(=O)[C@H](Cc2ccc(O)cc2)NC(=O)[C@H](CCCCN)NC(=O)[C@H](CO)NC(=O)[C@H](Cc2ccc(O)cc2)NC(=O)[C@H](CC(=O)O)NC(=O)[C@H](CO)NC(=O)[C@@H](NC(=O)[C@H](Cc2ccccc2)NC(=O)[C@@H](NC(=O)CNC(=O)[C@H](CCC(N)=O)NC(=O)C(C)(C)NC(=O)[C@@H](N)Cc2c[nH]cn2)[C@@H](C)O)[C@@H](C)O)C(=O)N[C@@H](CCC(N)=O)C(=O)N[C@@H](C)C(=O)N[C@@H](C)C(=O)N1)C(=O)N[C@@H](CCCCNC(=O)[C@H]1O[C@@H](OCCCCCCCCCCCCCCCC(=O)O)[C@H](O)[C@@H](O)[C@@H]1O)C(=O)N[C@@H](Cc1c[nH]c2ccccc12)C(=O)N[C@@H](CC(C)C)C(=O)N[C@@H](CC(C)C)C(=O)N[C@@H](CCC(N)=O)C(=O)N[C@H](C(N)=O)[C@@H](C)O [analogue 15] the EC50 ([1]; cAMP, CHO cells, 0.1% OVA containing buffers, read-out: pEC50 (SE) hu GLP-1 (converted)) was 38 pM and the EC50 [2, 5] was 65 pM.
In the case of CC[C@H](C)[C@H](NC(=O)[C@H](Cc1ccccc1)NC(=O)[C@H](CCC(=O)O)NC(=O)[C@@H]1CCCCNC(=O)CC[C@H](NC(=O)[C@H](CC(=O)O)NC(=O)[C@H](CC(C)C)NC(=O)[C@H](Cc2ccc(O)cc2)NC(=O)[C@H](CCCCN)NC(=O)[C@H](CO)NC(=O)[C@H](Cc2ccc(O)cc2)NC(=O)[C@H](CC(=O)O)NC(=O)[C@H](CO)NC(=O)[C@@H](NC(=O)[C@H](Cc2ccccc2)NC(=O)[C@@H](NC(=O)CNC(=O)[C@H](CCC(N)=O)NC(=O)C(C)(C)NC(=O)[C@@H](N)Cc2c[nH]cn2)[C@@H](C)O)[C@@H](C)O)C(=O)N[C@@H](CCC(N)=O)C(=O)N[C@@H](C)C(=O)N[C@@H](C)C(=O)N1)C(=O)N[C@@H](CCCCNC(=O)[C@H]1O[C@@H](OCCCCCCCCCCCCCCCCCC(=O)O)[C@H](O)[C@@H](O)[C@@H]1O)C(=O)N[C@@H](Cc1c[nH]c2ccccc12)C(=O)N[C@@H](CC(C)C)C(=O)N[C@@H](CC(C)C)C(=O)N[C@@H](CCC(N)=O)C(=O)N[C@H](C(N)=O)[C@@H](C)O [analogue 16], the EC50 ([1]; 0.1% BSA in assay buffer, read-out: EC50 GLP-1R) is reported as 1270 pM and the EC50 [2, 5] is reported as 86 pM.
